# Source: US11807693B2 (priority 2014, dated 2023)
# Starred links: 1 amine or outer side, 2 acyl side, 3 side chain; linkers in the order of their positions; H or OH if unused. Non-standard residues stand in square brackets, D forms with d. Residues, ends and D or L forms follow the SMILES beside them. *: point of attachment. Oic = O=C(O)[C@@H]1C[C@@H]2CCCC[C@@H]2N1; Phe(4-Cl) = N[C@@H](Cc1ccc(Cl)cc1)C(=O)O; Phe(4-F) = N[C@@H](Cc1ccc(F)cc1)C(=O)O; γGlu = O=C(O)[C@H](CCC(=O)[*:2])N[*:1]; d(β3hF) = N[C@@H](CC(=O)O)Cc1ccccc1; NMeR = CN[C@@H](CCCNC(=N)N)C(=O)O; Palmitoyl = CCCCCCCCCCCCCCCC(=O)*; Tridecanoyl = CCCCCCCCCCCCC(=O)*; αMeF = C[C@](N)(Cc1ccccc1)C(=O)O; dTic = O=C(O)[C@H]1Cc2ccccc2CN1; Cha = N[C@@H](CC1CCCCC1)C(=O)O; αMeL = CC(C)C[C@](C)(N)C(=O)O; αMeP = C[C@@]1(C(=O)O)CCCN1; β3hP = O=C(O)C[C@@H]1CCCN1; Pip = O=C(O)[C@@H]1CCCCN1; β3hS = N[C@@H](CO)CC(=O)O; Nle = CCCC[C@H](N)C(=O)O; Orn = NCCC[C@H](N)C(=O)O; Deg = CCC(N)(CC)C(=O)O; AEEA = NCCOCCOCC(=O)O; Aib = CC(C)(N)C(=O)O
# Target: T1, human APJ receptor (Homo sapiens, UniProt P35414)
# T1 construct: expressed in transfected cells
# T1 sequence (P35414 1-380): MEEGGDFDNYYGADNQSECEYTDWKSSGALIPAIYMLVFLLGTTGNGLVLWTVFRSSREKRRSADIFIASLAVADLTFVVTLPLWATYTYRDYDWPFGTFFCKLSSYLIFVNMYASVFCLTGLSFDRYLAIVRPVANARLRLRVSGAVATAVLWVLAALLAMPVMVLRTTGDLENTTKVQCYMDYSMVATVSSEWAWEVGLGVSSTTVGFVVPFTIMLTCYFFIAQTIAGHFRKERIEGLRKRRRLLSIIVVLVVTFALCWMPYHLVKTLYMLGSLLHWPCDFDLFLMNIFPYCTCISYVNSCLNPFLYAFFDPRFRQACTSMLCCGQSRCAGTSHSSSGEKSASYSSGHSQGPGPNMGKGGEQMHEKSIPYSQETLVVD
# Test: [35S] GTPγS assay, human APJ receptor
# Format: biochemical
# Details: Table 16
# Method: The membranes were incubated with modified peptides in the assay buffer. […] Bound [^35S] GTPγS was separated from free radiolabel by filtration. The filter bound radioactivity was determined by liquid scintillation counting.
row,SMILES,EC50 [nM]
1,CCCCCCCCCCCCC(=O)N[C@@H](CCC(=O)NCCOCCOCC(=O)NCCOCCOCC(=O)N[C@@H](CCC(N)=O)C(=O)N[C@@H](CCCNC(=N)N)C(=O)N1CCC[C@H]1CC(=O)N(C)[C@@H](CCCNC(=N)N)C(=O)N[C@@H](CC1CCCCC1)C(=O)N[C@@H](CO)C(=O)N[C@@H](Cc1c[nH]cn1)C(=O)N[C@@H](CCCCN)C(=O)NCC(=O)N1[C@H](C(=O)N[C@@H](CCCC)C(=O)N2CCC[C@H]2C(=O)N[C@@H](Cc2ccc(Cl)cc2)C(=O)O)C[C@@H]2CCCC[C@@H]21)C(=O)O [compound 441] ({Tridecanoyl-γGlu-AEEA-AEEA}-QR[β3hP][NMeR][Cha]SHKG[Oic][Nle]P[Phe(4-Cl)]-OH),1.9
2,CCCCCCCCCCCCC(=O)N[C@@H](CCC(=O)NCCOCCOCC(=O)NCCOCCOCC(=O)N[C@H](CCC(N)=O)C(=O)N[C@@H](CCCNC(=N)N)C(=O)N1CCC[C@H]1C(=O)N(C)[C@@H](CCCNC(=N)N)C(=O)N[C@@](C)(CC(C)C)C(=O)N[C@@H](CO)CC(=O)N[C@@H](Cc1c[nH]cn1)C(=O)N[C@@H](CCCCN)C(=O)NCC(=O)N1[C@H](C(=O)N[C@@H](CCCC)C(=O)N2CCC[C@@]2(C)C(=O)N[C@@H](Cc2ccc(Cl)cc2)C(=O)O)C[C@@H]2CCCC[C@@H]21)C(=O)O [compound 518] ({Tridecanoyl-γGlu-AEEA-AEEA}-[dQ]RP[NMeR][αMeL][β3hS]HKG[Oic][Nle][αMeP][Phe(4-Cl)]-OH),0.113
3,CCCCCCCCCCCCC(=O)N[C@@H](CCC(=O)NCCOCCOCC(=O)NCCOCCOCC(=O)N[C@H](CCC(N)=O)C(=O)N[C@@H](CCC(=O)O)C(=O)N1CCC[C@H]1C(=O)N(C)[C@@H](CCCNC(=N)N)C(=O)N[C@@H](CC1CCCCC1)C(=O)N[C@@H](CO)C(=O)N[C@@H](Cc1c[nH]cn1)C(=O)N[C@@H](CCCCN)C(=O)NCC(=O)N1[C@H](C(=O)N[C@@H](CCCC)C(=O)NC(C)(C)C(=O)N[C@@H](Cc2ccc(Cl)cc2)C(=O)O)C[C@@H]2CCCC[C@@H]21)C(=O)O [compound 524] ({Tridecanoyl-γGlu-AEEA-AEEA}-[dQ]EP[NMeR][Cha]SHKG[Oic][Nle][Aib][Phe(4-Cl)]-OH),53.1
4,CCCCCCCCCCCCC(=O)N[C@@H](CCC(=O)NCCOCCOCC(=O)NCCOCCOCC(=O)N[C@H](CCC(N)=O)C(=O)N[C@H](CCC(=O)O)C(=O)N1CCC[C@H]1C(=O)N(C)[C@@H](CCCNC(=N)N)C(=O)N[C@@H](CC1CCCCC1)C(=O)N[C@@H](CO)C(=O)N[C@@H](Cc1c[nH]cn1)C(=O)N[C@@H](CCCCN)C(=O)NCC(=O)N1[C@H](C(=O)N[C@@H](CCCC)C(=O)NC(C)(C)C(=O)N[C@@H](Cc2ccc(Cl)cc2)C(=O)O)C[C@@H]2CCCC[C@@H]21)C(=O)O [compound 525] ({Tridecanoyl-γGlu-AEEA-AEEA}-[dQ][dE]P[NMeR][Cha]SHKG[Oic][Nle][Aib][Phe(4-Cl)]-OH),159
5,CCCCCCCCCCCCC(=O)N[C@@H](CCC(=O)NCCOCCOCC(=O)NCCOCCOCC(=O)N[C@H](CCC(N)=O)C(=O)N[C@@H](CCCNC(=N)N)C(=O)N1CCC[C@H]1C(=O)N(C)[C@@H](CCCNC(=N)N)C(=O)N[C@@H](CC1CCCCC1)C(=O)N[C@@H](CO)C(=O)N[C@@H](Cc1c[nH]cn1)C(=O)N[C@@H](CCCCN)C(=O)NCC(=O)N1[C@H](C(=O)N[C@@H](CCCC)C(=O)NC(CC)(CC)C(=O)N[C@@H](Cc2ccc(Cl)cc2)C(=O)O)C[C@@H]2CCCC[C@@H]21)C(=O)O [compound 549] ({Tridecanoyl-γGlu-AEEA-AEEA}-[dQ]RP[NMeR][Cha]SHKG[Oic][Nle][Deg][Phe(4-Cl)]-OH),1.2

# Same assay, conditions: human APJ receptor
row,SMILES,EC50 [nM]
1,CCCCCCCCCCCCCCCC(=O)N[C@@H](CCC(=O)NCCOCCOCC(=O)NCCOCCOCC(=O)N[C@H](CCC(N)=O)C(=O)N[C@@H](CCCNC(=N)N)C(=O)N1CCC[C@H]1C(=O)N(C)[C@@H](CCCNC(=N)N)C(=O)N[C@@H](CC1CCCCC1)C(=O)N[C@@H](CO)C(=O)N[C@@H](Cc1c[nH]cn1)C(=O)N[C@@H](CCCCN)C(=O)NCC(=O)N1CCCC[C@H]1C(=O)NC(C)(C)C(=O)N[C@@H](Cc1ccc(Cl)cc1)C(=O)O)C(=O)O [compound 581] ({Palmitoyl-γGlu-AEEA-AEEA}-[dQ]RP[NMeR][Cha]SHKG[Pip][Aib][Phe(4-Cl)]-OH),1.4
2,CCCCCCCCCCCCCCCC(=O)N[C@@H](CCC(=O)NCCOCCOCC(=O)NCCOCCOCC(=O)N[C@H](CCC(N)=O)C(=O)N[C@@H](CCCNC(=N)N)C(=O)N1CCC[C@H]1C(=O)N(C)[C@@H](CCCNC(=N)N)C(=O)N[C@@H](CC1CCCCC1)C(=O)N[C@@H](CO)C(=O)N[C@@H](Cc1c[nH]cn1)C(=O)N[C@@H](CCCCN)C(=O)NCC(=O)N1CCCC[C@H]1C(=O)N[C@@H](CCCC)C(=O)N1CCC[C@H]1C(=O)N1Cc2ccccc2C[C@@H]1C(=O)O)C(=O)O [compound 599] ({Palmitoyl-γGlu-AEEA-AEEA}-[dQ]RP[NMeR][Cha]SHKG[Pip][Nle]P[dTic]-OH),0.44
3,CCCCCCCCCCCCCCCC(=O)N[C@@H](CCC(=O)NCCOCCOCC(=O)NCCOCCOCC(=O)N[C@H](CCC(N)=O)C(=O)N[C@@H](CCCNC(=N)N)C(=O)N1CCC[C@H]1C(=O)N(C)[C@@H](CCCNC(=N)N)C(=O)N[C@@H](CC1CCCCC1)C(=O)N[C@@H](CO)C(=O)N[C@@H](Cc1c[nH]cn1)C(=O)N[C@@H](CCCCN)C(=O)NCC(=O)N1[C@H](C(=O)N[C@@H](CCCC)C(=O)N2CCCC[C@H]2C(=O)N[C@@](C)(Cc2ccccc2)C(=O)O)C[C@@H]2CCCC[C@@H]21)C(=O)O [compound 609] ({Palmitoyl-γGlu-AEEA-AEEA}-[dQ]RP[NMeR][Cha]SHKG[Oic][Nle][Pip][αMeF]-OH),1.25
4,CCCCCCCCCCCCCCCC(=O)N[C@@H](CCC(=O)NCCOCCOCC(=O)NCCOCCOCC(=O)N[C@H](CCC(N)=O)C(=O)N[C@@H](CCCNC(=N)N)C(=O)N1CCC[C@H]1C(=O)N(C)[C@@H](CCCNC(=N)N)C(=O)N[C@@H](CC1CCCCC1)C(=O)N[C@@H](CO)C(=O)N[C@@H](Cc1c[nH]cn1)C(=O)N[C@@H](CCCCN)C(=O)NCC(=O)N1CCC[C@H]1CC(=O)N[C@@H](CCCC)C(=O)N[C@@H](Cc1ccc(Cl)cc1)C(=O)O)C(=O)O [compound 613] ({Palmitoyl-γGlu-AEEA-AEEA}-[dQ]RP[NMeR][Cha]SHKG[β3hP][Nle][Phe(4-Cl)]-OH),1.66
5,CCCCCCCCCCCCCCCC(=O)N[C@@H](CCC(=O)NCCOCCOCC(=O)NCCOCCOCC(=O)N[C@H](CCC(N)=O)C(=O)N[C@@H](CCCNC(=N)N)C(=O)N1CCC[C@H]1C(=O)N(C)[C@@H](CCCNC(=N)N)C(=O)N[C@@H](CC1CCCCC1)C(=O)N[C@@H](CO)C(=O)N[C@@H](Cc1c[nH]cn1)C(=O)N[C@@H](Cc1ccc(F)cc1)C(=O)NCC(=O)N1[C@H](C(=O)N[C@@H](CCCC)C(=O)N2CCC[C@H]2CC(=O)N[C@@H](CC(=O)O)Cc2ccccc2)C[C@@H]2CCCC[C@@H]21)C(=O)O [compound 622] ({Palmitoyl-γGlu-AEEA-AEEA}-[dQ]RP[NMeR][Cha]SH[Phe(4-F)]G[Oic][Nle][β3hP][d(β3hF)]-OH),11.8
6,CCCCCCCCCCCCCCCC(=O)N[C@@H](CCC(=O)NCCOCCOCC(=O)NCCOCCOCC(=O)N[C@H](CCC(N)=O)C(=O)N[C@@H](CCCNC(=N)N)C(=O)N1CCC[C@H]1C(=O)N(C)[C@@H](CCCNC(=N)N)C(=O)N[C@@](C)(CC(C)C)C(=O)N[C@@H](CO)C(=O)N[C@@H](Cc1c[nH]cn1)C(=O)N[C@@H](CCCN)C(=O)NCC(=O)N1[C@H](C(=O)N[C@@H](CCCC)C(=O)N2CCC[C@H]2CC(=O)N[C@@H](Cc2ccc(Cl)cc2)C(=O)O)C[C@@H]2CCCC[C@@H]21)C(=O)O [compound 634] ({Palmitoyl-γGlu-AEEA-AEEA}-[dQ]RP[NMeR][αMeL]SH[Orn]G[Oic][Nle][β3hP][Phe(4-Cl)]-OH),0.165
